{"source": "patent US20230382916A1", "about": "“HETEROARYL HETEROCYCLIC COMPOUNDS AND USES THEREOF” (HUTCHISON MEDIPHARMA LIMITED, priority 2020, published 2023)", "key": {"BTK recombinant protein": {"target": "BTK recombinant protein (Homo sapiens (Human), UniProt Q06187)", "sequence (Q06187 whole entry)": "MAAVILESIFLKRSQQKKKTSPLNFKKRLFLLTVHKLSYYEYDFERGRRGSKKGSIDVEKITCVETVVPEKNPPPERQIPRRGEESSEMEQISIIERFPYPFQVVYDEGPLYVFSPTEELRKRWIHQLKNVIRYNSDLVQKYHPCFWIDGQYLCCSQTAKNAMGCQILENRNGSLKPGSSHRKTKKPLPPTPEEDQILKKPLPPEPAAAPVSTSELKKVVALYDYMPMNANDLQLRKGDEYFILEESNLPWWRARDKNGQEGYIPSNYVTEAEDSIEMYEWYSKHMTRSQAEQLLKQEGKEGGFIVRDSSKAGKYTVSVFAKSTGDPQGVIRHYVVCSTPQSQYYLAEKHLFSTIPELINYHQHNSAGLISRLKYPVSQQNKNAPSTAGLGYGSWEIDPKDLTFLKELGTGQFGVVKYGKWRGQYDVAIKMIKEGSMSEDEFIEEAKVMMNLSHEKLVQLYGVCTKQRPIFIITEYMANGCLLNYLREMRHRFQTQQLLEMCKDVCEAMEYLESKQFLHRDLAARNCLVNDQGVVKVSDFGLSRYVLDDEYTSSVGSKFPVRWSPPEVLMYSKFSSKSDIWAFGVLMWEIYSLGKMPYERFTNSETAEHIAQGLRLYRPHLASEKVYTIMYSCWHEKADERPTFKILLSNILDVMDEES", "experiment": "Determination of biochemical BTK (Z'-LYTE kinase assay)", "settings": "32 μM ATP", "from_the_text": "BTK recombinant protein: Invitrogen, Cat #PV3363;\nZ′-LYTE® kinase test kit-tyrosine 1 peptide: Invitrogen, Cat #PV3190;\nZ′-LYTE® biochemical assay employs a fluorescence resonance energy transfer (FRET)-based, coupled-enzyme format and is based on the differential sensitivity of phosphorylated and non-phosphorylated peptides to proteolytic cleavage. Both ends of the short peptide substrate are labeled with two fluorescent groups to form a FRET paired combination. In the primary reaction (the Kinase Reaction), the kinase transfers the γ-phosphate of ATP to a single […] residue on the short peptide substrate. In the secondary reaction (the development reaction), the non-phosphorylated short peptides were recognized and cleaved by a site-specific protease (the development reagent). Phosphorylated short peptides can resist such cleavage. Cleavage of short peptides can disrupt the donor (such as coumarin) and receptor fluorophores (fluorescein) on the short peptides, while the phosphorylated short peptides can maintain FRET. The calculation method of the ratio is as follows, and the ratio of the respective emission signals generated by the donor fluorophores emitted (after excitation at 400 nm) to the receptors is calculated. Emission signal ratio=emitted light by coumarin (445 nm)/emitted light by fluorescein (520 nm). If the FRET short peptide is phosphorylated (such as no kinase inhibitor), the emitted light ratio will remain in a lower level. If the FRET short peptide is non-phosphorylated (such as kinase inhibitor), the emitted light ratio will be in a higher level. In this way, the inhibitory effects of different compound inhibitors on BTK kinase activity would be distinguished.\nThe experiment was carried out according to the instructions of the Z′-LYTE® kinase test kit-tyrosine 1 peptide. Reagent preparation: 1.33× kinase buffer: 5× kinase buffer was diluted with water to 1.33× kinase buffer; an enzyme solution: the kinase was dissolved in 1.33× kinase buffer with the final working concentration being 3.32 nM; a short peptide solution: a short peptide stock solution (1 mM dissolved in DMSO) was dissolved in 1.33× kinase buffer with the final working concentration being 2 μM; Z′-LYTE Tyr01 phosphorylated short peptide solution, 0.6 μl of stock solution (1 mM dissolved in DMSO) was dissolved in 149.4 μl of 1.33× kinase buffer; an ATP solution: an ATP stock solution (10 mM aqueous solution) was dissolved in 1.33× kinase buffer with the final working concentration being 32 μM; a color-developing solution: color-developing solution B was dissolved in color-developing buffer with the final working concentration being 1× color-developing solution; 4× compound preparation: the compound was diluted in 3-fold gradient concentration to finally obtain 4% DMSO aqueous solution containing different concentrations of the compound, with the final working concentration being 3000, 1000, 333.33, 111.11, 37.04, 12.35, 4.12, 1.37 nM, 8 concentration points in total.\nSpecific steps of the experiment: In the experiment, there were three control groups, each with 8 replicate wells, which were C1 100% inhibition group (no ATP), C2 0% inhibition group (with ATP), and C3 100% phosphorylation group, respectively. 2.5 μl of serially diluted compound was added to each well of a 384-well plate, with double replicate wells, and 4% DMSO solution was added to wells C1, C2, and C3. After that, except for wells C3, 2.5 μl of BTK enzyme solution was added to each remaining well, which was left to stand at 4° C. for 30 minutes. After that, except for wells C3, 2.5 μl of short peptide solution was added to each well, and 5 μl of phosphorylated short peptide solution was added to each of wells C3. 2.5 μl of 1.33× kinase buffer was added to each of wells C1 and C3, and 2.5 μl of ATP solution was added to each of the remaining wells. The wells were centrifuged transiently, and the plate was shaken at 1000 rpm for 30 seconds to perform transient centrifuge. […]"}, "[1]": {"experiment": "Stability test in liver microsomes (rat)", "format": "in vitro ADME", "settings": "rat liver microsomes 0.5 mg/mL, 1 μM compound", "experimental": "(§1) Both male CD-1 mouse pooled liver microsomes and male SD rat pooled liver microsomes were purchased from BioreclamationIVT Corporation, USA.\n(§2) The test compound stock solution was diluted with an organic solvent (usually a mixture of acetonitrile, methanol and water with various ratios, depending on the solubility of the compound, if necessary, 1 N hydrochloric acid or 1 N sodium hydroxide would be added to facilitate solubilization) to the 0.1 mM (the final concentration of the compound in the reaction system was 1 μM) and the concentration percentage of the organic solvents in the incubation system no more than 1% (wherein the percentage of DMSO was required to be no more than 0.1%). An appropriate amount of 100 mM NADP, 500 mM G-6-P and 100 Unit/mL G-6-PDH were mixed and diluted with ultrapure water (the final system contains 1 mM NADP, 5 mM G-6-P and 1 Unit/mL G-6-PDH), pre-incubated in a 37° C. water bath for 10 minutes and then placed on ice for use as a NADPH regeneration solution. 20 mg/mL liver microsomes solution and 200 mM phosphate buffer were mixed, and diluted with ultrapure water to give a liver microsomes solution containing 2.5 mg/mL liver microsomes (the final concentration of the reaction system is 0.5 mg/mL) and 50 mM phosphate buffer. The diluted liver microsomes solution was mixed with 0.1 mM compound solution, a mixture of 100 mM EDTA, 300 mM MgCl2 solution, 200 mM phosphate buffer (the final system was 3 mM MgCl2, 1 mM EDTA and 50 mM phosphate buffer) and water in an appropriate volume was added. Finally, the NADPH regeneration solution was added, then the reaction solution was placed in a 37° C. water bath to start the reaction (the reaction time was 30 minutes), and the reaction was stopped by adding the ice-cold acetonitrile reaction stopping solution containing the internal standard. The 0-minute sample was not incubated in a 37° C. water bath, and its difference from the 30-minute sample further lies in that the ice-cold acetonitrile reaction stopping solution containing the internal standard was added first, and then the NADPH regeneration solution was added. The sample added with the reaction stopping internal standard solution was vortexed and mixed well, and then centrifuged at 4400 rpm for 10 minutes. The supernatant was taken and diluted ten times with 50% methanol for LC-MS/MS analysis.\n(§3) LC-MS/MS was used to determine the concentration of the compound in the sample. The percentage of the remaining compound after 30 minutes of incubation comparing with that in the 0-minute sample was calculated using the peak area ratio of the compound to the internal standard as an indicator, to evaluate the metabolic stability of the compound."}, "[2]": {"experiment": "Stability test in liver microsomes (mouse)", "format": "in vitro ADME", "settings": "mouse liver microsomes 0.5 mg/mL, 1 μM compound", "experimental": "as §1, §2, §3"}, "[3]": {"system": "anti-IgD antibody-induced B cell activation in mice whole blood", "experiment": "In vivo efficacy of the inhibitory effect on BTK target: anti-IgD antibody-induced B cell activation in mice whole blood after oral dosing", "set-up": "species or system mouse", "settings": "20 mg/kg oral single dose, 16 h", "experimental": "Objects: B cells in mice whole blood were induced and activated by the anti-IgD antibody, and the inhibitory effect of the compound of the present invention on B cell activation in vivo was studied, so as to determine the inhibitory effect of the compound of the present invention on the BTK target in vivo.\nMethods: C57BL/6 mice (female, 18-20 g, purchased from Shanghai Lingchang Biotechnology Co., Ltd.) were grouped according to Table 1.\nThe animals of each group were administered, then were placed in CO2 for anesthesia at designated time points, blood samples were taken from […] via retro-orbital bleeding, and heparin was used for anticoagulation; 90 μL of whole blood was taken from mice of each group, and added to a 96 well culture plate, and anti-mouse IgD antibody (BIO-RAD, Cat #MCA4693) was added to each well to a final concentration of […] (respectively for each drug-treated group and anti-IgD antibody-inducted vehicle group); in addition, 90 μL of whole blood of mice in the vehicle group was taken and added to the 96-well culture plate, and PBS (phosphate buffer, GIBCO, Cat #C20012500BT) was added to each well to a final concentration of 0.01 μg/L (namely, the vehicle control group); Each group was mixed well and incubated in a 37° C./5% CO2 incubator for 4 hours. In addition, the blood of mice in the drug-treated group was centrifuged to separate plasma for blood concentration analysis.\nB cell activation ratio=percentage of CD69^+CD19^+ double positive B cells/percentage of CD19^+ single positive B cells\nInhibition ratio=(percentage of B cell activation ratio in anti-IgD antibody-induced vehicle group−percentage of B cell activation ratio in drug-treated group)/(percentage of B cell activation ratio in anti-IgD antibody−induced vehicle group-percentage of B cell activation ratio in vehicle control group)×100%\nAll data are represented by mean±standard error. For the comparison between each drug-treated group and the anti-IgD antibody-induced vehicle group, p value was calculated by Graphpad Prism using one-way ANOVA analysis of variance and Dunnett's test, and for the comparison between each drug-treated group, p value was calculated by using unpaired t test."}}}
{"compound": "C[C@@H]1CN(C2COC2)C[C@H](C)N1c1ccc(Nc2cc(-c3ccnc(-n4ccn5c6c(cc5c4=O)CC(C)(C)C6)c3CO)cn(C)c2=O)nc1", "note": "[Compound 2]", "values": [{"measurement": "IC50", "setting": "BTK recombinant protein", "value": 7, "unit": "nM"}, {"measurement": "RLM, percentage of the remaining compound after 30 minutes of incubation", "setting": "[1]", "value": 85.7, "unit": "%"}, {"measurement": "MLM, percentage of the remaining compound after 30 minutes of incubation", "setting": "[2]", "value": 92.6, "unit": "%"}, {"measurement": "Inhibition ratio (%) on B cell activation", "setting": "[3]", "value": 43, "unit": "%"}, {"measurement": "B cell activation ratio (the population of activated B cells in total B cells)", "setting": "[3]; mean ± standard error", "value": "20.6 ± 5.0"}, {"measurement": "Inhibition ratio (%) on B cell activation", "setting": "[3]; listed as compound 2", "value": 43, "unit": "%"}]}
